Data on one compound can be found in BindingDB's records for patent US8987287 (Purdue Pharma, 2015).

A word on the Ki: it is a measure of affinity in units of concentration, obtained from inhibition or displacement. Read a high Ki as a looser hold on the target.

The target of assay [1] is Mu-type opioid receptor (Homo sapiens, UniProt P35372). Description: Radioligand Dose-Displacement Binding Assay. Particulars: pH 7.4; 50 °C. Here is the method: mu-Opioid Receptor Binding Assay Procedures: Radioligand dose-displacement binding assays for mu-opioid receptors used 0.3 nM [3H]-diprenorphine (Perkin Elmer, Shelton, Conn.), with […]/well in a final volume of 500 ul binding buffer (10 mM MgCl2, 1 mM EDTA, 5% DMSO, 50 mM HEPES, pH 7.4). Reactions were carried out in the absence or presence of increasing concentrations of unlabeled naloxone. All reactions were conducted in 96-deep well polypropylene plates for 2 hours at room temperature. Binding reactions were terminated by rapid filtration onto 96-well Unifilter GF/C filter plates (Perkin Elmer, Shelton, Conn.), presoaked in 0.5% polyethylenimine using a 96-well tissue harvester (Perkin Elmer, Shelton, Conn.) followed by performing three filtration washes with 500 ul of ice-cold binding buffer. Filter plates were subsequently dried at 50 C. for 2-3 hours. BetaScint scintillation cocktail (Perkin Elmer, Shelton, Conn.) was added (50 ul/well).

In assay [2] the target is Kappa-type opioid receptor (Homo sapiens, UniProt P41145). The experiment in a line: Radioligand Dose-Displacement Binding Assay. Particulars: pH 7.4; 25 °C. On the procedure:
Radioligand dose displacement assays used 0.4 nM [3H]-U69,593 (GE Healthcare, Piscataway, N.J.; 40 Ci/mmole) with 15 ug membrane protein (recombinant kippa opioid receptor expressed in HEK 293 cells; in-house prep) in a final volume of 200 ul binding buffer (5% DMSO, 50 mM Trizma base, pH 7.4). Non-specific binding was determined in the presence of 10 uM unlabeled naloxone or U69,593. All reactions were performed in 96-well polypropylene plates for 1 hour at a temperature of about 25 C. Binding reactions were terminated by rapid filtration onto 96-well Unifilter GF/C filter plates (Perkin Elmer, Shelton, Conn.) presoaked in 0.5% polyethylenimine (Sigma). Harvesting was performed using a 96-well tissue harvester (Perkin Elmer, Shelton, Conn.) followed by five filtration washes with 200 ul ice-cold binding buffer. Filter plates were subsequently dried at 50 C. for 1-2 hours. Fifty ul/well scintillation cocktail (Perkin Elmer, Shelton, Conn.) was added.

Chain of Mu-type opioid receptor (P35372 whole entry): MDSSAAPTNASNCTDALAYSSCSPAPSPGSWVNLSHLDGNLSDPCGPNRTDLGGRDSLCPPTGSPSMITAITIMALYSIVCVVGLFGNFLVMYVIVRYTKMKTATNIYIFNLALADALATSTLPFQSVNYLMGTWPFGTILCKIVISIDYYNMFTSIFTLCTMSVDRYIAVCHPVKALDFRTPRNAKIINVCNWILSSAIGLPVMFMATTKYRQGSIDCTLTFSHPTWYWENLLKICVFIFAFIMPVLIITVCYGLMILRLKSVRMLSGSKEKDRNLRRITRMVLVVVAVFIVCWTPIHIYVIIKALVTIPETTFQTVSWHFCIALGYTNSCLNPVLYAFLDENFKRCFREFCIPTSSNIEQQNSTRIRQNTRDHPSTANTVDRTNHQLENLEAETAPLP
Chain of Kappa-type opioid receptor (P41145 whole entry): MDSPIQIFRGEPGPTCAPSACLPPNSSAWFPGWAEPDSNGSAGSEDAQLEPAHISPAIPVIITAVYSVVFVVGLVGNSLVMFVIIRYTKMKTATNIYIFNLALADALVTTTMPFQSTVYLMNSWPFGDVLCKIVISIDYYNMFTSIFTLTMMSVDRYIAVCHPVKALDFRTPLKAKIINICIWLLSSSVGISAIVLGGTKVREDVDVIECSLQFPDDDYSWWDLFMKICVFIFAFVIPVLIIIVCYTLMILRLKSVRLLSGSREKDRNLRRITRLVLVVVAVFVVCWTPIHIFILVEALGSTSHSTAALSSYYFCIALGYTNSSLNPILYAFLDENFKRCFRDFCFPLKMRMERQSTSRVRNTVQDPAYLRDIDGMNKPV

Consider `COc1ccc2c(c1)[C@]13CCN(C)[C@H](C2)[C@]1(O)CC[C@@]1(C3)NC(=O)NC1=O` [US8987287, 9], for which the inhibition constant Ki in assay [1] was 3.88 µM; in assay [2] it was above 20 µM.
